Source: ChEMBL document CHEMBL1201862, “PubChem BioAssay data set” (2004)
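Each compound was tested at five concentrations against cells in 96-well plates for 48 hours. GI50: concentration for 50% inhibition of growth.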 The source made the active and inactive calls. Cut-off read from the data, not from the text of the source: active = GI50 up to about 1.1 µM and inactive = higher.

How the values were obtained:
Assay in all cases: inhibition of tumour cell growth, NCI panel, 48 h
[1] = system: A549
[2] = system: DU-145
[3] = system: HOP-92
[4] = system: IGROV-1
[5] = system: LOX IMVI
[6] = system: MCF7
[7] = system: MDA-MB-231
[8] = system: MDA-MB-435
[9] = system: Malme-3M
[10] = system: NCI-H23
[11] = system: NCI/ADR-RES
[12] = system: OVCAR-3
[13] = system: PC-3
[14] = system: SK-MEL-2
[15] = system: SK-OV-3
[16] = system: SNB-19
[17] = system: SR
[18] = system: SW-620
[19] = system: T47D
[20] = system: UACC-62

Cc1ccc(S(=O)(=O)OC2=C/C(=N\c3onc(C)c3C)c3ccccc3C2=O)cc1
GI50 [1]: 51.1 µM (inactive) | GI50 [2]: 51.6 µM (inactive) | GI50 [3]: 18.8 µM (inactive) | GI50 [4]: > 10 µM (inactive) | GI50 [5]: 18.6 µM (inactive) | GI50 [6]: 17.3 µM (inactive) | GI50 [7]: 19.7 µM (inactive) | GI50 [8]: 16.1 µM (inactive) | GI50 [9]: 17.9 µM (inactive) | GI50 [10]: 22.6 µM (inactive) | GI50 [11]: 25.2 µM (inactive) | GI50 [12]: 16.5 µM (inactive) | GI50 [13]: 20.6 µM (inactive) | GI50 [14]: 12.9 µM (inactive) | GI50 [15]: 28.7 µM (inactive) | GI50 [16]: 26.7 µM (inactive) | GI50 [17]: 3.01 µM (inactive) | GI50 [18]: 28.2 µM (inactive) | GI50 [19]: 24.2 µM (inactive) | GI50 [20]: 20.6 µM (inactive)

CCOC(=O)CCNC(=O)c1cc(C)cc2c1Oc1c(cc(C)cc1C(=O)NCCC(=O)OCC)S2
GI50 [1]: 64 µM (inactive) | GI50 [2]: > 100 µM (inactive) | GI50 [3]: 19.5 µM (inactive) | GI50 [4]: > 100 µM (inactive) | GI50 [5]: 95.9 µM (inactive) | GI50 [6]: 57.1 µM (inactive) | GI50 [7]: 25.2 µM (inactive) | GI50 [8]: > 100 µM (inactive) | GI50 [9]: > 100 µM (inactive) | GI50 [10]: > 100 µM (inactive) | GI50 [11]: 44.6 µM (inactive) | GI50 [12]: > 100 µM (inactive) | GI50 [13]: > 100 µM (inactive) | GI50 [14]: 90.8 µM (inactive) | GI50 [15]: > 100 µM (inactive) | GI50 [16]: 42 µM (inactive) | GI50 [17]: > 100 µM (inactive) | GI50 [18]: > 100 µM (inactive) | GI50 [19]: 28.8 µM (inactive) | GI50 [20]: 38.5 µM (inactive)

NC(CC1=CS(=O)(=O)c2ccc(Cl)cc21)C(=O)O (stereo not given)
GI50 [1]: > 100 µM (inactive) | GI50 [2]: > 100 µM (inactive) | GI50 [3]: > 100 µM (inactive) | GI50 [4]: > 100 µM (inactive) | GI50 [5]: > 100 µM (inactive) | GI50 [6]: 92.3 µM (inactive) | GI50 [7]: > 100 µM (inactive) | GI50 [8]: > 100 µM (inactive) | GI50 [9]: 76.7 µM (inactive) | GI50 [10]: > 100 µM (inactive) | GI50 [11]: > 100 µM (inactive) | GI50 [12]: > 100 µM (inactive) | GI50 [13]: > 100 µM (inactive) | GI50 [14]: > 100 µM (inactive) | GI50 [15]: > 100 µM (inactive) | GI50 [16]: > 100 µM (inactive) | GI50 [17]: > 100 µM (inactive) | GI50 [18]: > 100 µM (inactive) | GI50 [19]: > 100 µM (inactive) | GI50 [20]: > 100 µM (inactive)

C=C1C[C@@H](O)[C@@H](Br)C(C)(C)[C@]12CCC(C)(Br)C(Cl)C2 (stereo not given in full)
GI50 [1]: > 50 µM (inactive) | GI50 [2]: > 50 µM (inactive) | GI50 [3]: > 50 µM (inactive) | GI50 [4]: > 50 µM (inactive) | GI50 [5]: > 50 µM (inactive) | GI50 [6]: > 50 µM (inactive) | GI50 [7]: > 50 µM (inactive) | GI50 [8]: > 50 µM (inactive) | GI50 [9]: > 50 µM (inactive) | GI50 [10]: > 50 µM (inactive) | GI50 [11]: > 50 µM (inactive) | GI50 [12]: > 50 µM (inactive) | GI50 [13]: 0.8 µM (active) | GI50 [14]: > 50 µM (inactive) | GI50 [15]: > 50 µM (inactive) | GI50 [16]: > 50 µM (inactive) | GI50 [17]: > 50 µM (inactive) | GI50 [18]: > 50 µM (inactive) | GI50 [19]: > 50 µM (inactive) | GI50 [20]: > 50 µM (inactive)

NCCN1C(=O)c2cc(Cl)c(Cl)cc2C1(O)c1ccc(Cl)cc1 (stereo not given)
GI50 [1]: 2.09 µM (inactive) | GI50 [2]: 2.69 µM (inactive) | GI50 [3]: 2.91 µM (inactive) | GI50 [4]: 2.07 µM (inactive) | GI50 [5]: 1.7 µM (inactive) | GI50 [6]: 1.83 µM (inactive) | GI50 [7]: 2.01 µM (inactive) | GI50 [8]: 1.68 µM (inactive) | GI50 [9]: 1.71 µM (inactive) | GI50 [10]: 2.69 µM (inactive) | GI50 [11]: 2.42 µM (inactive) | GI50 [12]: 2.19 µM (inactive) | GI50 [13]: 4.98 µM (inactive) | GI50 [14]: 1.84 µM (inactive) | GI50 [15]: 13.5 µM (inactive) | GI50 [16]: 2.82 µM (inactive) | GI50 [17]: 2.02 µM (inactive) | GI50 [18]: 1.9 µM (inactive) | GI50 [19]: 2.11 µM (inactive) | GI50 [20]: 1.79 µM (inactive)

N#Cc1nc(-c2cccc(-c3nc(C#N)c(N)o3)n2)oc1N
GI50 [1]: > 100 µM (inactive) | GI50 [2]: > 100 µM (inactive) | GI50 [3]: > 100 µM (inactive) | GI50 [4]: > 100 µM (inactive) | GI50 [5]: > 100 µM (inactive) | GI50 [6]: > 100 µM (inactive) | GI50 [7]: > 100 µM (inactive) | GI50 [8]: > 100 µM (inactive) | GI50 [9]: > 100 µM (inactive) | GI50 [10]: > 100 µM (inactive) | GI50 [11]: > 100 µM (inactive) | GI50 [12]: > 100 µM (inactive) | GI50 [13]: > 100 µM (inactive) | GI50 [14]: > 100 µM (inactive) | GI50 [15]: > 100 µM (inactive) | GI50 [16]: > 100 µM (inactive) | GI50 [17]: > 100 µM (inactive) | GI50 [18]: > 100 µM (inactive) | GI50 [19]: > 100 µM (inactive) | GI50 [20]: > 100 µM (inactive)

CSc1cc(-c2ccccn2)nc(-c2ccccn2)c1
GI50 [1]: 0.137 µM (active) | GI50 [2]: 0.097 µM (active) | GI50 [3]: 0.0959 µM (active) | GI50 [4]: 0.102 µM (active) | GI50 [5]: 0.043 µM (active) | GI50 [6]: 0.324 µM (active) | GI50 [7]: 0.494 µM (active) | GI50 [8]: 0.327 µM (active) | GI50 [9]: 0.102 µM (active) | GI50 [10]: 0.398 µM (active) | GI50 [11]: 0.0944 µM (active) | GI50 [12]: 0.0279 µM (active) | GI50 [13]: 0.092 µM (active) | GI50 [14]: 0.552 µM (active) | GI50 [15]: 0.255 µM (active) | GI50 [16]: 0.564 µM (active) | GI50 [17]: 0.0405 µM (active) | GI50 [18]: 0.126 µM (active) | GI50 [19]: 0.346 µM (active) | GI50 [20]: 0.176 µM (active)
